Source: ChEMBL document CHEMBL4052645, “Discovery of potent and efficacious pyrrolopyridazines as dual JAK1/3 inhibitors” (Bioorg Med Chem Lett, 2017)

Assays:
[1] = target: Rho-associated protein kinase 2 (Homo sapiens, UniProt O75116); assay: Inhibition of human ROCK2 (M1 to T431 residues) expressed in mammalian expression system assessed as residual activity at 50 nM by KINOMEscan assay relative to control
[2] = target: Homeodomain-interacting protein kinase 3 (Homo sapiens) (UniProt Q9H422); assay: Inhibition of wild-type human partial length HIPK3 (M153 to N562 residues) expressed in mammalian expression system assessed as residual activity at 50 nM by Kinomescan method relative to control
[3] = target: Serine/threonine-protein kinase MRCK beta (Homo sapiens) (UniProt Q9Y5S2); assay: Inhibition of human MRCKB (L56 to S417 residues) expressed in bacterial expression system assessed as residual activity at 50 nM by KINOMEscan assay relative to control
[4] = target: Tyrosine-protein kinase Blk (Homo sapiens) (UniProt P51451); assay: Inhibition of wild-type human partial length BLK (G211 to L503 residues) expressed in bacterial expression system assessed as residual activity at 50 nM by Kinomescan method relative to control
[5] = target: Serine/threonine-protein kinase PknB (Mycobacterium tuberculosis) (UniProt P9WI81); assay: Inhibition of wild-type Mycobacterium tuberculosis partial length PKNB (M1 to G279 residues) expressed in mammalian expression system assessed as residual activity at 50 nM by Kinomescan method relative to control
[6] = target: Casein kinase I isoform gamma-1 (Homo sapiens) (UniProt Q9HCP0); assay: Inhibition of wild-type human partial length CK1G1 (T15 to S353 residues) expressed in bacterial expression system assessed as residual activity at 50 nM by Kinomescan method relative to control
[7] = target: Serine/threonine-protein kinase Nek1 (Homo sapiens) (UniProt Q96PY6); assay: Inhibition of wild-type human partial length NEK1 (M1 to K278 residues) expressed in bacterial expression system assessed as residual activity at 50 nM by Kinomescan method relative to control
[8] = target: Serine/threonine-protein kinase LATS1 (Homo sapiens) (UniProt O95835); assay: Inhibition of wild-type human partial length LATS1 (Q678 to V1130 residues) expressed in bacterial expression system assessed as residual activity at 50 nM by Kinomescan method relative to control
[9] = target: Dual specificity protein kinase CLK2 (Homo sapiens) (UniProt P49760); assay: Inhibition of wild-type human partial length CLK2 (D144 to R498 residues) expressed in bacterial expression system assessed as residual activity at 50 nM by Kinomescan method relative to control
[10] = target: Mitogen-activated protein kinase 7 (Homo sapiens) (UniProt Q13164); assay: Inhibition of wild-type human partial length ERK5 (M1 to A409 residues) expressed in bacterial expression system assessed as residual activity at 50 nM by Kinomescan method relative to control
[11] = target: Peripheral plasma membrane protein CASK (Homo sapiens) (UniProt O14936); assay: Inhibition of wild-type human partial length CASK (M1 to H315 residues) expressed in mammalian expression system assessed as residual activity at 50 nM by Kinomescan method relative to control
[12] = target: Serine/threonine-protein kinase 17B (Homo sapiens) (UniProt O94768); assay: Inhibition of wild-type human full length DRAK2 (M1 to C372 residues) expressed in bacterial expression system assessed as residual activity at 50 nM by Kinomescan method relative to control
[13] = target: Calcium/calmodulin-dependent protein kinase type II subunit delta (Homo sapiens) (UniProt Q13557); assay: Inhibition of wild-type human partial length CAMK2D (M1 to E329 residues) expressed in bacterial expression system assessed as residual activity at 50 nM by Kinomescan method relative to control
[14] = target: BMP-2-inducible protein kinase (Homo sapiens) (UniProt Q9NSY1); assay: Inhibition of human BIKE (S34 to N329 residues) expressed in bacterial expression system assessed as residual activity at 50 nM by KINOMEscan assay relative to control
[15] = target: Homeodomain-interacting protein kinase 2 (Homo sapiens) (UniProt Q9H2X6); assay: Inhibition of wild-type human partial length HIPK2 (M153 to S564 residues) expressed in mammalian expression system assessed as residual activity at 50 nM by Kinomescan method relative to control
[16] = target: Macrophage-stimulating protein receptor (Homo sapiens) (UniProt Q04912); assay: Inhibition of wild-type human partial length RON (I1057 to L1363 residues) expressed in bacterial expression system assessed as residual activity at 50 nM by Kinomescan method relative to control
[17] = target: Protein-tyrosine kinase 2-beta (Homo sapiens) (UniProt Q14289); assay: Inhibition of wild-type human full length PYK2 (M1 to E967 residues) expressed in bacterial expression system assessed as residual activity at 50 nM by Kinomescan method relative to control
[18] = target: Serine/threonine-protein kinase N2 (Homo sapiens) (UniProt Q16513); assay: Inhibition of human PKN2 (E634 to C948 residues) expressed in bacterial expression system assessed as residual activity at 50 nM by KINOMEscan assay relative to control
[19] = target: Mitogen-activated protein kinase 6 (Homo sapiens) (UniProt Q16659); assay: Inhibition of wild-type human partial length ERK3 (M1 to P413 residues) expressed in bacterial expression system assessed as residual activity at 50 nM by Kinomescan method relative to control
[20] = target: Serine/threonine-protein kinase MAK (Homo sapiens) (UniProt P20794); assay: Inhibition of wild-type human partial length MAK (M1 to P314 residues) expressed in bacterial expression system assessed as residual activity at 50 nM by Kinomescan method relative to control
[21] = target: Cyclin-dependent kinase 11B (Homo sapiens) (UniProt P21127); assay: Inhibition of wild-type human partial length CDK11 (M1 to N360 residues) expressed in bacterial expression system assessed as residual activity at 50 nM by Kinomescan method relative to control
[22] = target: Uncharacterized serine/threonine-protein kinase SBK3 (Homo sapiens) (UniProt P0C264); assay: Inhibition of wild-type human partial length SGK110 (L22 to R329 residues) expressed in bacterial expression system assessed as residual activity at 50 nM by Kinomescan method relative to control
[23] = target: Mitogen-activated protein kinase kinase kinase 6 (Homo sapiens) (UniProt O95382); assay: Inhibition of wild-type human partial length MAP3K6 (M278 to R972 residues) expressed in mammalian expression system assessed as residual activity at 50 nM by Kinomescan method relative to control
[24] = target: Serine/threonine-protein kinase PLK2 (Homo sapiens) (UniProt Q9NYY3); assay: Inhibition of wild-type human partial length PLK2 (H58 to F354 residues) expressed in mammalian expression system assessed as residual activity at 50 nM by Kinomescan method relative to control
[25] = target: Tyrosine-protein kinase CSK (Homo sapiens) (UniProt P41240); assay: Inhibition of wild-type human full length CSK (M1 to L450 residues) expressed in bacterial expression system assessed as residual activity at 50 nM by Kinomescan method relative to control
Chain of Tyrosine-protein kinase CSK (Homo sapiens) (P41240 2-450 limits assumed): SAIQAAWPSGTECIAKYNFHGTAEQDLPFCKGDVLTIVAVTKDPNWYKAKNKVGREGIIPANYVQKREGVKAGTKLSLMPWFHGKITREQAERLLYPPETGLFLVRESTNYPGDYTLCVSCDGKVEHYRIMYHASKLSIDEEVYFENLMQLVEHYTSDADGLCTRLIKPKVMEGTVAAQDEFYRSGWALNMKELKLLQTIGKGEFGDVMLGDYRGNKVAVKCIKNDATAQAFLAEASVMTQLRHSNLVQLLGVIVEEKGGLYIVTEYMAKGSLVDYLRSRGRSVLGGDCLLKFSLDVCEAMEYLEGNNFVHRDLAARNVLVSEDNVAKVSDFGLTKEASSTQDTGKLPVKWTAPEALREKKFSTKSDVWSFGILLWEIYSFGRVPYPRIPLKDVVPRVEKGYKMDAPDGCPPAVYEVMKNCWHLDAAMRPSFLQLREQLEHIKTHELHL

Chain of Casein kinase I isoform gamma-1 (Homo sapiens) (Q9HCP0 whole entry, looked up, the tested form may be a part, canonical isoform): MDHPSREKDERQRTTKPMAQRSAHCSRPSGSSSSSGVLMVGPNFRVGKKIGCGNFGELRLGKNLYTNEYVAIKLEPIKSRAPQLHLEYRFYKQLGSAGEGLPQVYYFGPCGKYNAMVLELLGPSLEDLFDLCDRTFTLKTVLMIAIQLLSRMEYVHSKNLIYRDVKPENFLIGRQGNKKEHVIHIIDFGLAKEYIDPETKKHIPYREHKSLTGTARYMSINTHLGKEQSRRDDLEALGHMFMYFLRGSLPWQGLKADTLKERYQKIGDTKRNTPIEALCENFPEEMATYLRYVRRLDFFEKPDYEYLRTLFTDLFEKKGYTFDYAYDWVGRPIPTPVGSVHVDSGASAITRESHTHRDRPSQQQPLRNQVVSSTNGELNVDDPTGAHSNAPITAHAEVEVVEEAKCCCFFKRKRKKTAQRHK
Chain of Serine/threonine-protein kinase N2 (Homo sapiens) (Q16513 whole entry, looked up, the tested form may be a part): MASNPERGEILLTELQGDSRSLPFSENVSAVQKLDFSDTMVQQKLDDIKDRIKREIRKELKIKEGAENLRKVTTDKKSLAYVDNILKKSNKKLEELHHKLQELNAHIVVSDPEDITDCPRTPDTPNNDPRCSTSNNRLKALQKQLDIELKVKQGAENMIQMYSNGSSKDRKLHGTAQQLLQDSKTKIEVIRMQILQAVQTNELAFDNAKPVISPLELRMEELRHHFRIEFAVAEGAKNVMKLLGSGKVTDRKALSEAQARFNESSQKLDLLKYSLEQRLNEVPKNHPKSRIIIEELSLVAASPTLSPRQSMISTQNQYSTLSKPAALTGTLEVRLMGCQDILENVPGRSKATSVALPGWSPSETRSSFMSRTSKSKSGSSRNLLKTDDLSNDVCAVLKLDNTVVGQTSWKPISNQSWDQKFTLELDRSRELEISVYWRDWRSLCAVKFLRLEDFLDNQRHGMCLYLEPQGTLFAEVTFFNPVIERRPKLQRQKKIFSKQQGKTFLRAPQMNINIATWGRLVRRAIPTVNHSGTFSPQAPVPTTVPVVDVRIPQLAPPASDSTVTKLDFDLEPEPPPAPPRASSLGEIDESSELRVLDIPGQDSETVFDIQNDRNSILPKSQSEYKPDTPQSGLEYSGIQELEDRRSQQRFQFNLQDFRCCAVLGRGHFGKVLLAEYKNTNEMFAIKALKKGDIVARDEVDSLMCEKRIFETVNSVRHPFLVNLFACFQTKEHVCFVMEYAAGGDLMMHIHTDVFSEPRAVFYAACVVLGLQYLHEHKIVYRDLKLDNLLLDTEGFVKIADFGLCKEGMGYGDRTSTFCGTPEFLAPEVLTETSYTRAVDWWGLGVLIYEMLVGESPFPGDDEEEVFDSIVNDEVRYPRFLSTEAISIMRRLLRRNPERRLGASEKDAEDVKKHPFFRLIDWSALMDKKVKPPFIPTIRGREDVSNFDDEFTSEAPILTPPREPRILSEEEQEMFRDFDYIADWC
Chain of Serine/threonine-protein kinase 17B (Homo sapiens) (O94768 whole entry, the tested form may be a part): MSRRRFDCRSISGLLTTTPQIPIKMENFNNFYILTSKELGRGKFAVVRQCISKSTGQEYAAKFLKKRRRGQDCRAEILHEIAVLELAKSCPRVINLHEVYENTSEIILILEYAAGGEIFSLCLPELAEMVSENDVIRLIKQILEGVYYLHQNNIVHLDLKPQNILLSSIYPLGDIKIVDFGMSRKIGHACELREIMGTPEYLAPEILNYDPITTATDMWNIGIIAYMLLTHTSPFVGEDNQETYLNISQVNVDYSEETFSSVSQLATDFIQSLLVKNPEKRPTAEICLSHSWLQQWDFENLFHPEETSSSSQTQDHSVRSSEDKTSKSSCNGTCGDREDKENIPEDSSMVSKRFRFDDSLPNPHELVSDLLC
Chain of Serine/threonine-protein kinase MRCK beta (Homo sapiens) (Q9Y5S2 whole entry, the tested form may be a part): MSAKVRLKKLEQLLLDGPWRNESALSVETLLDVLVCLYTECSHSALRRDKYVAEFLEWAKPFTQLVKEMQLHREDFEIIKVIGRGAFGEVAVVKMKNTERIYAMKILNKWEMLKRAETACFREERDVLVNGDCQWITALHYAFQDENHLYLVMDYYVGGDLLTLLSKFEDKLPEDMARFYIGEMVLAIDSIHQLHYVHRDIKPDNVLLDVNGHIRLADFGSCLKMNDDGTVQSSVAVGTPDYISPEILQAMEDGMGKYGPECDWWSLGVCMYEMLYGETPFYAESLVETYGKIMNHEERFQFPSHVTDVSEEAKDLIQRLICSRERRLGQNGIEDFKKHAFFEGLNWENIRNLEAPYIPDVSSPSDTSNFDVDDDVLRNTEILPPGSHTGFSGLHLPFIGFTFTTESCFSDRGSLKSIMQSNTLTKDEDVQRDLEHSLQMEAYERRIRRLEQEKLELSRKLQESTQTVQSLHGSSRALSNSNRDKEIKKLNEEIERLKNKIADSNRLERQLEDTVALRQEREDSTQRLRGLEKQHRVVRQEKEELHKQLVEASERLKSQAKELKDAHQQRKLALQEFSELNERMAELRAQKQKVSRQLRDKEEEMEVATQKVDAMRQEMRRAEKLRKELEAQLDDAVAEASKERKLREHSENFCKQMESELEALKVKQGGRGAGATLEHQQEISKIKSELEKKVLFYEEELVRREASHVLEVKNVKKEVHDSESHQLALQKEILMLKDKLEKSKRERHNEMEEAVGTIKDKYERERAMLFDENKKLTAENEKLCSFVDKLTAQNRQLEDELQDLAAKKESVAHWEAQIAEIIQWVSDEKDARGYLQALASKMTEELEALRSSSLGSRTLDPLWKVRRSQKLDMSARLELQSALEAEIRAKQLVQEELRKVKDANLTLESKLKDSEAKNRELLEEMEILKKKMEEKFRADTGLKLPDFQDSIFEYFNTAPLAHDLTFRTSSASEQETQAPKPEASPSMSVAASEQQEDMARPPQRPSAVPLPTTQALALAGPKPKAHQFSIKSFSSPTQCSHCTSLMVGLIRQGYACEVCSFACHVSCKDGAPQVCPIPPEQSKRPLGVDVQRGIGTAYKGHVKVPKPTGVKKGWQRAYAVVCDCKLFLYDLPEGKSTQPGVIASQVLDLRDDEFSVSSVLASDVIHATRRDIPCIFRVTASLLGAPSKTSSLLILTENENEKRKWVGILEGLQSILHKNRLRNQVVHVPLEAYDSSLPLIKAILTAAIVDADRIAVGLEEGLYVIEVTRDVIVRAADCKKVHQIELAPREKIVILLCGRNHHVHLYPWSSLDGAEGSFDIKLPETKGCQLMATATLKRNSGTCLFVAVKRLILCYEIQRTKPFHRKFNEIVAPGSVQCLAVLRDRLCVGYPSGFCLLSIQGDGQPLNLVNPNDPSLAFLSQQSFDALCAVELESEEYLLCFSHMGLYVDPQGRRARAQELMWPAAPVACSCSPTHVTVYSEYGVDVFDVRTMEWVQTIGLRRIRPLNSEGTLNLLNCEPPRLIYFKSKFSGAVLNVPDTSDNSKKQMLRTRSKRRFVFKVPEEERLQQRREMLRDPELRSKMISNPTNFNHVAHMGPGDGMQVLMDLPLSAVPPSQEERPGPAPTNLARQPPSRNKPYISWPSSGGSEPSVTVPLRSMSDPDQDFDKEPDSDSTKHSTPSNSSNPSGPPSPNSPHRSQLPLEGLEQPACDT
Chain of Serine/threonine-protein kinase LATS1 (Homo sapiens) (O95835 whole entry, the tested form may be a part): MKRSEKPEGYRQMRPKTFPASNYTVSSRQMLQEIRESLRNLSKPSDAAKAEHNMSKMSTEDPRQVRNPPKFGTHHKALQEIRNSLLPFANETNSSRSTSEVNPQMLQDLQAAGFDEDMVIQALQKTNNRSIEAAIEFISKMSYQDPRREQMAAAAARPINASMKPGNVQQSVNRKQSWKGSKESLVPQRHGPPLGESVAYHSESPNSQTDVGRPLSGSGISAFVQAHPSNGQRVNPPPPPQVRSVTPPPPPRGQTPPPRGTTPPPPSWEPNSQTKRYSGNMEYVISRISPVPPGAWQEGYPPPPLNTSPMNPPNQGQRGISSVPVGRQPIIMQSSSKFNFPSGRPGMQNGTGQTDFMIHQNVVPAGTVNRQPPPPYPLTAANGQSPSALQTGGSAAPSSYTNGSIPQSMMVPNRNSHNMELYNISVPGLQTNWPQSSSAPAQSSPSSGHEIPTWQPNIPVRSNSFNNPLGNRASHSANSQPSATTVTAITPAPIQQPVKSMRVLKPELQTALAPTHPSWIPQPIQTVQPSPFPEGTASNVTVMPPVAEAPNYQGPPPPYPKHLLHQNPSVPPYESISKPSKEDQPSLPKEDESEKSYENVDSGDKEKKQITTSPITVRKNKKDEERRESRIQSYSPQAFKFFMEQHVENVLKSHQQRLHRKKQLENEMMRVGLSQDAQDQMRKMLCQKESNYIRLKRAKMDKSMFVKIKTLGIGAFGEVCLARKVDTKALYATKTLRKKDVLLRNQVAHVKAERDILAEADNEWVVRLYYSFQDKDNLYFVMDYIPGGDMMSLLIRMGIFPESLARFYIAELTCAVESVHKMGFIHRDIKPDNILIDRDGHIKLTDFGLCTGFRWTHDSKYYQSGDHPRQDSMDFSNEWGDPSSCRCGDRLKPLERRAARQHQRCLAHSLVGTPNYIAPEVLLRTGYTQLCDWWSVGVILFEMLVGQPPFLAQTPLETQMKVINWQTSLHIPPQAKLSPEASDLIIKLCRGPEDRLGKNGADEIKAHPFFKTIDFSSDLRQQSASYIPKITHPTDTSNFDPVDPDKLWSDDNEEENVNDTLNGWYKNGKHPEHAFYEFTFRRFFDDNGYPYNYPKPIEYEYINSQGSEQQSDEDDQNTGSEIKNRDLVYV

CC1(C)[C@H](Nc2c(C(N)=O)cnn3cc(-c4ccccc4)cc23)CC[C@]1(C)N
Activity [1]: 3.6%
Activity [2]: 72%
Activity [3]: 29%
Activity [4]: 100%
Activity [5]: 17%
Activity [6]: 92%
Activity [7]: 100%
Activity [8]: 91%
Activity [9]: 69%
Activity [10]: 96%
Activity [11]: 98%
Activity [12]: 100%
Activity [13]: 100%
Activity [14]: 7.5%
Activity [15]: 97%
Activity [16]: 100%
Activity [17]: 100%
Activity [18]: 3%
Activity [19]: 82%
Activity [20]: 100%
Activity [21]: 99%
Activity [22]: 41%
Activity [23]: 56%
Activity [24]: 100%
Activity [25]: 100%

COc1ccc(-c2cc3c(N[C@@H]4CC[C@](C)(N)C4(C)C)c(C(N)=O)cnn3c2)cn1
Activity [1]: 18%
Activity [2]: 100%
Activity [3]: 82%
Activity [4]: 95%
Activity [5]: 24%
Activity [6]: 100%
Activity [7]: 92%
Activity [8]: 90%
Activity [9]: 71%
Activity [10]: 100%
Activity [11]: 95%
Activity [12]: 100%
Activity [13]: 100%
Activity [14]: 42%
Activity [15]: 100%
Activity [16]: 100%
Activity [17]: 93%
Activity [18]: 27%
Activity [19]: 100%
Activity [20]: 100%
Activity [21]: 100%
Activity [22]: 62%
Activity [23]: 93%
Activity [24]: 100%
Activity [25]: 100%
